Earlier results on five compounds are cited in patent publication US20040019101A1, “Methods of treating gastrointestinary and genitourinary pain disorders” (priority 2002, published 2004).

Data set [1] concerns monoamine neurotransmitter uptake.
A further data set relates to irritable bowel syndrome. The settings on record: in vivo.
For a further data set, the system named is orocecal transit. The settings on record: healthy subjects or IBS patients.
A further data set has as its system histaminergic receptors. The settings on record: in vitro.
The test system of a further data set is adrenergic receptors. The settings on record: in vitro.
The next data set deals with dopamine reuptake. The settings on record: compared with serotonin and norepinephrine uptake.

`CN(C)CC(c1ccc(O)cc1)C1(O)CCCCC1` (centres unmarked) [O-desmethyl venlafaxine, 1-[(2-dimethylamino)-1-(4-hydoxyphenyl)ethyl]cyclohexanol]: the “inhibition of monoamine neurotransmitter uptake” value in data set [1] is on record as “potent inhibitors”.
`CN(C)CCC=C1c2ccccc2CCc2ccccc21` [amytriptiline]: in the data set with irritable bowel syndrome, the “efficacy in treatment of irritable bowel syndrome” value (“efficacy in treatment” below) is on record as “efficacious”.
On to `CN(C)CCC=C1c2ccccc2COc2ccccc21` [doxepin], for which the “efficacy in treatment” value in the data set on irritable bowel syndrome is listed as “efficacious”.
On to `CN(C)CCCN1c2ccccc2CCc2ccccc21` [imipramine], for which, in the data set on orocecal transit, the “effect on orocecal transit” value was “prolong orocecal transit”. The “efficacy in treatment” value in the data set on irritable bowel syndrome is recorded as “efficacious”.
For the compound `COc1ccc(C(CN(C)C)C2(O)CCCCC2)cc1` (centres unmarked) [venlafaxine, 1-[2-(dimethylamino)-1-(4-methoxyphenyl)ethyl] cyclohexanol], the “inhibition of monoamine neurotransmitter uptake” value in data set [1] is “potent inhibitors”. The “inhibitory activity on monoamine oxidase” value in the data set on monoamine oxidase was “no inhibitory activity”. Also, in the data set on histaminergic receptors, the “affinity for histaminergic receptors” value is on record as “virtually no affinity”. Further, in the data set on adrenergic receptors, the “affinity for adrenergic receptors” value is “virtually no affinity”. In the data set with norepinephrine uptake, the “inhibition of norepinephrine uptake” value is listed as “potent inhibition”. For the same compound, the “inhibition of dopamine reuptake” value in the data set with dopamine reuptake was “To a lesser degree”.
